# Laboratory results taken from patent publication US9346809B2 (LEO PHARMA A/S, priority 2009, dated 2016).
# Like-named read-outs stand apart in the source and are kept apart here.
# Legend:
# Format in all cases: biochemical
# [1] = target: T1, TYK2 (aa 871-1187, catalytic domain, GST-tag) (Homo sapiens, UniProt P29597); test: JAK kinase assay (HTRF, phosphorylation of TK substrate-biotin), TYK2; settings: ATP at Km (13 μM)
# T1 construct: JAK1 (aa 850-1154) and TYK2 (aa 871-1187) are expressed with an N-terminally fused GST-tag; GST (N); purchased Carna Biosciences, Inc; host or cells: baculovirus expression system
# T1 sequence (P29597 871-1187): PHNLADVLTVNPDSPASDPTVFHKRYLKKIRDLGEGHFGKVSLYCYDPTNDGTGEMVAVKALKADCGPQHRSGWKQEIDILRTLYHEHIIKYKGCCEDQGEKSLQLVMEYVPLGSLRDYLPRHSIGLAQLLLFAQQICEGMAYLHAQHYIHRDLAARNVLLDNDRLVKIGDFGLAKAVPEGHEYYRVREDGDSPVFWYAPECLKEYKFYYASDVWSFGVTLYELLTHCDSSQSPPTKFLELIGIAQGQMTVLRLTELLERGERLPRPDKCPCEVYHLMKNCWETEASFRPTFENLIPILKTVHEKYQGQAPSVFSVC
# Description: (§1) Human baculovirus-expressed JAK1, 2, 3 and TYK2 were purchased from Carna Biosciences, Inc. All four purified enzymes contain only the catalytic domain. JAK1 (aa 850-1154) and TYK2 (aa 871-1187) are expressed with an N-terminally fused GST-tag, and JAK2 and JAK3 with an N-terminally fused His-tag.
# (§2) Inhibition of phosphorylation of a synthetic peptide was measured in an HTRF-based assay using the TK substrate-Biotin from the Cisbio HTRFKinEASE TK kit. First, 2 μl of TK solution (TK substrate-biotin in kinase buffer [1× enzymatic buffer from HTRFKinEASE TK kit, 1 mM DTT]) is added to a plate containing 1 μl prediluted compound (final assay concentration DMSO: 0.75%). Then, 5 μl kinase-ATP mix (prepared in kinase buffer) is added to the wells and the plates are incubated at RT for 20-30 min. For all four kinases a concentration of ATP that corresponded to the Km for ATP was used. The final concentrations of buffers, substrate, kinase and ATP were: JAK1: 50 mM Hepes buffer pH 7.0, 0.01% BSA, 10 mM MgCl2, 1 mM DTT, 7 μM ATP, 50 nM SEB, 1 μM TK Substrate-Biotin and 5 ng JAK1; JAK2: 50 mM Hepes buffer pH 7.0, 0.01% BSA, 5 mM MgCl2, 1 mM DTT, 4 μM ATP, 1 μM TK Substrate-Biotin and 0.1 ng JAK2; JAK3: 50 mM Hepes buffer pH 7.0, 0.01% BSA, 5 mM MgCl2, 1 mM DTT, 2 μM ATP, 1 μM TK Substrate-Biotin and 0.3 ng JAK3; TYK2: 50 mM Hepes buffer pH 7.0, 0.01% BSA, 5 mM MgCl2, 1 mM DTT, 13 μM ATP, 50 nM SEB, 1 μM TK Substrate-Biotin and 0.8 ng TYK2. Thereafter, the kinase reaction is stopped by adding 4 μl detection mix (final concentrations: 50 mM Hepes buffer pH 7.0, 0.01% BSA, 0.8 M KF, 20 mM EDTA, 42 nM Streptavidin-XL665 and 1:400 STK Ab Cryptate) and the plates are incubated overnight in the dark. The HTRF signal is read using an Envision plate reader.
# (§3) In Table 1 selected JAK kinase inhibitory activities are listed with the following indicators: I: EC50<100 nM, II: 100 nM≦EC50≦500 nM and III: EC50>500 nM
# [2] = target: T2, JAK2 (catalytic domain, His-tag) (Homo sapiens, UniProt O60674); test: JAK kinase assay (HTRF, phosphorylation of TK substrate-biotin), JAK2; settings: ATP at Km (4 μM)
# T2 construct: All four purified enzymes contain only the catalytic domain; His (N); purchased Carna Biosciences, Inc; host or cells: baculovirus expression system
# T2 sequence (O60674 849-1124 limits assumed): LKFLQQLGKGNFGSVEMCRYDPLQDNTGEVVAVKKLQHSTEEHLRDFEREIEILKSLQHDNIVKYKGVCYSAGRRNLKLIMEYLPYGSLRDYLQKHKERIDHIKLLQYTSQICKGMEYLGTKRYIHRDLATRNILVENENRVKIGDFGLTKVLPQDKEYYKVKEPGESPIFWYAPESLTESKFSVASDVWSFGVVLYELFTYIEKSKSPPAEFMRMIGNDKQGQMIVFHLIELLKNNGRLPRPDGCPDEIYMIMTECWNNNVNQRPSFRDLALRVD
# Description: as §1, §2, §3
# [3] = target: T3, JAK3 (catalytic domain, His-tag) (Homo sapiens, UniProt P52333); test: JAK kinase assay (HTRF, phosphorylation of TK substrate-biotin), JAK3; settings: ATP at Km (2 μM)
# T3 construct: All four purified enzymes contain only the catalytic domain; His (N); purchased Carna Biosciences, Inc; host or cells: baculovirus expression system
# T3 sequence (P52333 822-1111 limits assumed): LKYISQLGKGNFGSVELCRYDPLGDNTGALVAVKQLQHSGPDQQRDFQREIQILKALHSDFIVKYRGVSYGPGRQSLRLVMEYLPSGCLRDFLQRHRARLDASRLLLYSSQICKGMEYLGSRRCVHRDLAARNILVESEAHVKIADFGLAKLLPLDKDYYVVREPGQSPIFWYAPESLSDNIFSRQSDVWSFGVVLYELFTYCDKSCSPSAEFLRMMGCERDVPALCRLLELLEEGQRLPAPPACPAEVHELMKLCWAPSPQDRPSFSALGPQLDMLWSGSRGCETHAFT
# Description: as §1, §2, §3
# [4] = target: T4, JAK1 (aa 850-1154, catalytic domain, GST-tag) (Homo sapiens, UniProt P23458); test: JAK kinase assay (HTRF, phosphorylation of TK substrate-biotin), JAK1; settings: ATP at Km (7 μM)
# T4 construct: JAK1 (aa 850-1154) and TYK2 (aa 871-1187) are expressed with an N-terminally fused GST-tag; GST (N); purchased Carna Biosciences, Inc; host or cells: baculovirus expression system
# T4 sequence (P23458 850-1154): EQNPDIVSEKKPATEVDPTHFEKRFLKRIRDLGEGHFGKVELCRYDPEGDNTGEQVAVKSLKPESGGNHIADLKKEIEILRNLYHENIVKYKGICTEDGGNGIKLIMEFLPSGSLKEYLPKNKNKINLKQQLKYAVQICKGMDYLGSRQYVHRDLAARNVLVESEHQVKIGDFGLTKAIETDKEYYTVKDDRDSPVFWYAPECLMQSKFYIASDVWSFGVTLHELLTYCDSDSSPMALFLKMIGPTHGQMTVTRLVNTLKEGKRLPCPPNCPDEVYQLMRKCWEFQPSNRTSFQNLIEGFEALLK
# Description: as §1, §2, §3
# [5] = HTRF assay, read-out: TYK2 kinase inhibitory activity (EC50 indicator)
# [6] = HTRF assay, read-out: JAK2 kinase inhibitory activity (EC50 indicator)
# [7] = HTRF assay, read-out: JAK3 kinase inhibitory activity (EC50 indicator)
# [8] = HTRF assay, read-out: JAK1 kinase inhibitory activity (EC50 indicator)
# [9] = read-out: TYK2 kinase inhibitory activity (EC50 indicator)
# [10] = read-out: JAK2 kinase inhibitory activity (EC50 indicator)
# [11] = read-out: JAK3 kinase inhibitory activity (EC50 indicator)
# [12] = read-out: JAK1 kinase inhibitory activity (EC50 indicator)
compound,measurement,setting,value
"N#Cc1cccc(C(=O)N2CCN(c3ncnc4[nH]cc(Cl)c34)CC23CC3)c1 [Example 316, 3-[7-(5-Chloro-7H-pyrrolo[2,3-d]pyrimidin-4-yl)-4,7-diaza-spiro[2.5]octane-4-carbonyl]-benzonitrile]",EC50,[1]; [5],> 0.5 µM
same,EC50,[2]; [6],0.1 to 0.5 µM
same,EC50,[3]; [7],0.1 to 0.5 µM
same,EC50,[4]; [8],> 0.5 µM
"N#Cc1ccc(C(=O)N2CCN(c3ccnc4[nH]ccc34)CC23CC3)cc1 [Example 226, 4-[7-(1H-Pyrrolo[2,3-b]pyridin-4-yl)-4,7-diaza-spiro[2.5]octane-4-carbonyl]-benzonitrile]",EC50,[1]; [5],> 0.5 µM
same,EC50,[2]; [6],0.1 to 0.5 µM
same,EC50,[3]; [7],> 0.5 µM
same,EC50,[4]; [8],< 0.1 µM
"O=C(c1cc2c(F)cccc2[nH]1)N1CCN(c2ncnc3[nH]ccc23)CC12CC2 [Example 368, (4-Fluoro-1H-indol-2-yl)-[7-(7H-pyrrolo[2,3-d]pyrimidin-4-yl)-4,7-diaza-spiro[2.5]oct-4-yl]-methanone]",EC50,[1]; [5],0.1 to 0.5 µM
same,EC50,[2]; [6],< 0.1 µM
same,EC50,[3]; [7],0.1 to 0.5 µM
same,EC50,[4]; [8],< 0.1 µM
"Nc1nc(N2CCN(C(=O)c3cnccn3)C3(CC3)C2)c2cc[nH]c2n1 [Example 302, [7-(2-Amino-7H-pyrrolo[2,3-d]pyrimidin-4-yl)-4,7-diaza-spiro[2.5]oct-4-yl]-pyrazin-2-yl-methanone]",EC50,[1]; [5],> 0.5 µM
same,EC50,[2]; [6],< 0.1 µM
same,EC50,[3]; [7],0.1 to 0.5 µM
same,EC50,[4]; [8],0.1 to 0.5 µM
"CCCCNC(=O)N1CCN(c2ncnc3[nH]ccc23)CC12CC2 [Example 444, 7-(7H-Pyrrolo[2,3-d]pyrimidin-4-yl)-4,7-diaza-spiro[2.5]octane-4-carboxylic acid butylamide]",EC50,"[1]; HTRF assay, read-out: TYK2 kinase inhibitory activity (EC50)",> 0.5 µM
same,EC50,"[2]; HTRF assay, read-out: JAK2 kinase inhibitory activity (EC50)",< 0.1 µM
same,EC50,"[3]; HTRF assay, read-out: JAK3 kinase inhibitory activity (EC50)",0.1 to 0.5 µM
same,EC50,"[4]; HTRF assay, read-out: JAK1 kinase inhibitory activity (EC50)",< 0.1 µM
"NS(=O)(=O)Cc1ccc(C(=O)N2CCN(c3ncnc4[nH]ccc34)CC23CC3)cc1 [Example 409, {4-[7-(7H-Pyrrolo[2,3-d]pyrimidin-4-yl)-4,7-diaza-spiro[2.5]octane-4-carbonyl]-phenyl}-methanesulfonamide]",EC50,[1]; [5],0.1 to 0.5 µM
same,EC50,[2]; [6],< 0.1 µM
same,EC50,[3]; [7],< 0.1 µM
same,EC50,[4]; [8],< 0.1 µM
"O=C(c1ccc2[nH]ccc2c1)N1[C@@H]2CC[C@H]1CN(c1ncnc3[nH]ccc13)C2 [Example 341, (1H-Indol-5-yl)-[3-(7H-pyrrolo[2,3-d]pyrimidin-4-yl)-3,8-diaza-bicyclo[3.2.1]oct-8-yl]-methanone]",EC50,[1]; [5],0.1 to 0.5 µM
same,EC50,[2]; [6],< 0.1 µM
same,EC50,[3]; [7],< 0.1 µM
same,EC50,[4]; [8],< 0.1 µM
"NS(=O)(=O)c1ccc(SCC(=O)N2CCN(c3ncnc4[nH]ccc34)CC23CC3)cc1 [Example 404, 4-{2-Oxo-2-[7-(7H-pyrrolo[2,3-d]pyrimidin-4-yl)-4,7-diaza-spiro[2.5]oct-4-yl]-ethylsulfanyl}-benzenesulfonamide]",EC50,[1]; [5],< 0.1 µM
same,EC50,[2]; [6],< 0.1 µM
same,EC50,[3]; [7],< 0.1 µM
same,EC50,[4]; [8],< 0.1 µM
"O=C(c1cc2ccc(F)cc2[nH]1)N1CCN(c2ncnc3[nH]ccc23)CC12CC2 [Example 363, (6-Fluoro-1H-indol-2-yl)-[7-(7H-pyrrolo[2,3-d]pyrimidin-4-yl)-4,7-diaza-spiro[2.5]oct-4-yl]-methanone]",EC50,[1]; [5],0.1 to 0.5 µM
same,EC50,[2]; [6],< 0.1 µM
same,EC50,[3]; [7],< 0.1 µM
same,EC50,[4]; [8],< 0.1 µM
"CC(=O)NCC(=O)N1CCN(c2ncnc3[nH]ccc23)CC12CC2 [Example 151, N-{2-Oxo-2-[7-(7H-pyrrolo[2,3-d]pyrimidin-4-yl)-4,7-diaza-spiro[2.5]oct-4-yl]-ethyl}-acetamide]",EC50,[1]; [9],> 0.5 µM
same,EC50,[2]; [10],0.1 to 0.5 µM
same,EC50,[3]; [11],> 0.5 µM
same,EC50,[4]; [12],0.1 to 0.5 µM
"CNS(=O)(=O)c1csc(C(=O)N2CCN(c3ncnc4[nH]ccc34)CC23CC3)c1C [Example 376, 4-Methyl-5-[7-(7H-pyrrolo[2,3-d]pyrimidin-4-yl)-4,7-diaza-spiro[2.5]octane-4-carbonyl]-thiophene-3-sulfonic acid methylamide]",EC50,[1]; [5],0.1 to 0.5 µM
same,EC50,[2]; [6],< 0.1 µM
same,EC50,[3]; [7],< 0.1 µM
same,EC50,[4]; [8],< 0.1 µM
"N#CC1(C(=O)N2C[C@@H]3C[C@H]2CN3c2ncnc3[nH]ccc23)CC1 [Example 270, 1-[5-(7H-Pyrrolo[2,3-d]pyrimidin-4-yl)-2,5-diaza-bicyclo[2.2.1]heptane-2-carbonyl]-cyclopropanecarbonitrile]",EC50,[1]; [5],> 0.5 µM
same,EC50,[2]; [6],> 0.5 µM
same,EC50,[3]; [7],> 0.5 µM
same,EC50,[4]; [8],> 0.5 µM
"N#Cc1ccccc1CC(=O)N1CCN(c2ncnc3[nH]ccc23)CC12CC2 [Example 113, 2-{2-Oxo-2-[7-(7H-pyrrolo[2,3-d]pyrimidin-4-yl)-4,7-diaza-spiro[2.5]oct-4-yl]-ethyl}-benzonitrile]",EC50,[1]; [9],> 0.5 µM
same,EC50,[2]; [10],< 0.1 µM
same,EC50,[3]; [11],0.1 to 0.5 µM
same,EC50,[4]; [12],0.1 to 0.5 µM
"Cc1c(C(=O)N2CCN(c3ncnc4[nH]ccc34)CC23CC3)[nH]c2ccc(F)cc12 [Example 185, (5-Fluoro-3-methyl-1H-indol-2-yl)-[7-(7H-pyrrolo[2,3-d]pyrimidin-4-yl)-4,7-diaza-spiro[2.5]oct-4-yl]-methanone]",EC50,[1]; [9],> 0.5 µM
same,EC50,[2]; [10],0.1 to 0.5 µM
same,EC50,[3]; [11],> 0.5 µM
same,EC50,[4]; [12],0.1 to 0.5 µM
"CS(=O)(=O)c1cccc(C(=O)N2C3CCC2CN(c2ncnc4[nH]ccc24)C3)c1 [Example 135, (3-Methanesulfonyl-phenyl)-[3-(7H-pyrrolo[2,3-d]pyrimidin-4-yl)-3,8-diaza-bicyclo[3.2.1]oct-8-yl]-methanone]",EC50,[1]; [9],> 0.5 µM
same,EC50,[2]; [10],< 0.1 µM
same,EC50,[3]; [11],0.1 to 0.5 µM
same,EC50,[4]; [12],< 0.1 µM
"N#Cc1cccc(CS(=O)(=O)N2[C@@H]3CC[C@H]2CN(c2ncnc4[nH]ccc24)C3)c1 [Example 77, 3-[3-(7H-Pyrrolo[2,3-d]pyrimidin-4-yl)-3,8-diaza-bicyclo[3.2.1]octane-8-sulfonylmethyl]-benzonitrile]",EC50,[1]; [9],> 0.5 µM
same,EC50,[2]; [10],< 0.1 µM
same,EC50,[3]; [11],0.1 to 0.5 µM
same,EC50,[4]; [12],< 0.1 µM
"Cc1cc(C(=O)N2[C@@H]3CC[C@H]2CN(c2ncnc4[nH]ccc24)C3)ccc1S(N)(=O)=O [Example 392, 2-Methyl-4-[3-(7H-pyrrolo[2,3-d]pyrimidin-4-yl)-3,8-diaza-bicyclo[3.2.1]octane-8-carbonyl]-benzenesulfonamide]",EC50,[1]; [5],> 0.5 µM
same,EC50,[2]; [6],< 0.1 µM
same,EC50,[3]; [7],< 0.1 µM
same,EC50,[4]; [8],< 0.1 µM
"Cc1c[nH]c2ncnc(N3CCN(C(=O)Cc4cccc(C#N)c4)C4(CC4)C3)c12 [Example 333, 3-{2-[7-(5-Methyl-7H-pyrrolo[2,3-d]pyrimidin-4-yl)-4,7-diaza-spiro[2.5]oct-4-yl]-2-oxo-ethyl}-benzonitrile]",EC50,[1]; [5],> 0.5 µM
same,EC50,[2]; [6],> 0.5 µM
same,EC50,[3]; [7],> 0.5 µM
same,EC50,[4]; [8],> 0.5 µM
